Where “and” joins values, the source holds several entries; their conditions need not be identical. Equal values may be shown once. Entries after “also recorded” stand apart in the source; their conditions may differ.

A short description of series [1]: Absorption and fluorescence spectroscopy. The class given is physicochemical. To be noted: for absorbance intensity after 30 min relative to that measured at 1 min: 10 μM in H2O. As to the method:
(§1) Photophysical study. For the absorption and fluorescence spectroscopy, we prepared a stock solution with concentration of 1 mM oligomer and 10% v/v solution of DMSO in H2O. 30 μL of the sonicated suspension of each EO-OPE-1 was diluted into 3 mL solution in a quartz cuvette to give a concentration of 10 μM. Absorption and fluorescence were performed on plate reader (SpectroMax M-5 microplate reader, Molecular Devices) at 24° C. Transient absorption spectra were recorded for EO-OPE-1 samples in both methanol and water. Transient absorption spectra were collected using laser systems that are described elsewhere 1, 2. The optical density was adjusted to 0.7 at the excitation wavelength (355 nm) with the laser energy being 6-7 mJ. Solutions were purged with argon for […] before making transient absorption spectroscopy measurements.

For series [2], the system named is E.coli, S.epidermis, and S.aureus. Put plainly: Dead/live assays, biocidal activity stated without singling out a bacterium. Format: cell-based. To be noted: UV irradiation. How it is done: (§2) Dead/live assays were performed to test the biocidal activity of EO-OPE-1(C3, A), EO-OPE-1 (C2, A), EO-OPE-1 (C3, S) and EO-OPE-1 (Th, C3, A) against E.coli, S.epidermis, and S.aureus. E.coli, S.epidermis, and S.aureus were cultured in 50 mL of Difco™ Nutrient broth (LOT 4057492, Becton, Dickinson and Company, Sparks, Md. 21152 USA), Difco™ Nutrient broth (LOT 4057492, Becton, Dickinson and Company, Sparks, Md. 21152 USA), and BBL™ Brain Heart Infusion (LOT 8263271, Becton, Dickinson and Company, Sparks, Md. 21152 USA), respectively, for 18 h at 37° C. under shaking. The bacteria were collected by centrifuging 50 mL of culture at 4,000 rpm in an Eppendorf centrifuge for 15 min at 4° C. The pellet was re-suspended with the assistance of vortex in 25 mL of 0.85% NaCl solution and repelleted. The wash cycle was repeated twice. Bacterial concentrations were measured and normalized using a disposal hemocytometer (INCYTO Co., Ltd), counts being 2.5˜3.0×10^7/mL. The diluted bacteria suspension was added to 1.5 mL of black and transparent microtubes in aliquots of 500 μL for dark and light samples, respectively. Three groups of live controls were prepared with cells suspended in black microtubes, transparent microtubes, and quartz cuvettes at the same concentrations, but without chemicals. These bacteria samples were titrated by OPEs with various concentrations followed by staying in dark for dark samples/controls and exposing to UV irradiation in a photoreactor chamber for light samples/controls with certain duration.
(§3) Dead/live assays were carried out using two sets of stains: SYTO 9/Propidium iodide for E.coli and SYTO 24/Propidium iodide for S.epidermis and S.aureus. SYTO 9 and SYTO 24 are cell membrane permeant nucleic acid stains with green (˜498 nm for SYTO 9 and ˜515 nm for SYTO 24) fluorescence and used to stain both live and dead cells; Propidium iodide is a red-fluorescent nucleic acid stain that is membrane impermeable to viable cells but stains DNA or RNA of dead cells with comprised membranes and emits red (˜617 nm) fluorescence, indicating cell death. Upon the completion of the above treatment, a 1 to 1 ratio mixture of the two dyes was prepared and added into the samples (2.4 μL mixed dyes for 500 μL suspension) and incubated for 15 minutes in the dark. Bacteria were then examined under a 40× oil objective on a Zeiss LSM 510 Meta confocal laser scanning microscope and an Accuri C6 flow cytometer to identify and quantify those live and dead bacteria.

The nature of series [3]: Solubility in solvents. The class given is physicochemical.
Series [4] can be described thus: Transient absorption spectroscopy (triplet state). The class given is physicochemical. How it is done:
as §1
Singlet oxygen generation. Excited triplet state (ETS) plays an essential role in the generation of ROS and 1O2. […] Another important point to note is that all members of EO-OPE-1 series underwent fast photobleaching in water during TA experiments (approximately 40-50% reduction in signal intensity). To minimize the error due to photobleaching, fresh samples were prepared and used in each run. […] On the other hand, the triplet lifetimes for EO-OPE-1(C3, A), EO-OPE-1 (C2, A), EO-OPE-1 (C3, S), and EO-OPE-1 (Th, C3, A) are 5.2 μs, 17.9 μs, 18.7 μs, and 7.2 μs, respectively. Based on the above discussions, we would expect C will give a higher yield of 1O2, with lower yields for EO-OPE-1 (C2, A), EO-OPE-1(C3, A), and EO-OPE-1 (C3, S).

In series [5] the test system is bacteriophage MS2. Put plainly: Phage inactivation, phage titer (PFU), MS2. The class given is cell-based. As to conditions: 10 ug/ml, UV-light, 1 hour. As to the method:
Bacteriophage Preparation and Titer. E. coli cells were grown in the standard Luria broth. The fresh E. coli culture was inoculated from an overnight culture followed by approximately three hours incubation at 37° C. to the exponential growth phase (O.D.600˜0.5). At this growth phase, the E. coli cells were collected by centrifuge and washed with Escherichia coli minimal medium (Glucose 5 g/L, Na2HPO4 6 g/L, KH2PO4 3 g/L, NH4Cl 1 g/L, NaCl 0.5 g/L, MgSO4, 0.12 g/L, CaCl2 0.01 g/L, pH 7.2) twice. The cell pellet was resuspended with minimal medium. The phage stock solutions were added into their corresponding bacterial host suspensions the phage-bacteria mixture incubated for 15 minutes at 37° C. for infection. The phage-bacteria mixture was transferred into fresh Escherichia coli minimal medium and incubated overnight for viral replication. […] The phage titer was determined by plaque forming units (PFU). […] After 6˜8 hours incubation, the plaque forming units were counted and phage solutions were diluted to 10^6˜10^7 PFU/ml with the minimal medium for further use.
Phage Inactivation. […] The viral inactivation ability was determined by phage titer as stated above and calculated by log (N0/N), where N is the PFU of the phage solution after exposure to CPEs/OPEs; N0 represents the PFU of corresponding negative control (without CPEs, OPEs or UV-irradiation). […]

In series [6] the test system is MS2 and T4 bacteriophages. Put plainly: Antiviral activity, general statement. Format: cell-based.
For series [7], the system named is E.coli. As to the kind of experiment: Dead/live assay, biocidal activity against E.coli. To be noted: under 365 nm radiation. Format: cell-based. As to the method: (§4) Dead/live assays were performed to test the biocidal activity of EO-OPE-1(C3, A), EO-OPE-1 (C2, A), EO-OPE-1 (C3, S) and EO-OPE-1 (Th, C3, A) against E.coli, S.epidermis, and S.aureus. E.coli, S.epidermis, and S.aureus were cultured in 50 mL of Difco™ Nutrient broth (LOT 4057492, Becton, Dickinson and Company, Sparks, Md. 21152 USA), Difco™ Nutrient broth (LOT 4057492, Becton, Dickinson and Company, Sparks, Md. 21152 USA), and BBL™ Brain Heart Infusion (LOT 8263271, Becton, Dickinson and Company, Sparks, Md. 21152 USA), respectively, for 18 h at 37° C. under shaking. The bacteria were collected by centrifuging 50 mL of culture at 4,000 rpm in an Eppendorf centrifuge for 15 min at 4° C. […] Bacterial concentrations were measured and normalized using a disposal hemocytometer (INCYTO Co., Ltd), counts being 2.5˜3.0×10^7/mL. […]
(§5) Dead/live assays were carried out using two sets of stains: SYTO 9/Propidium iodide for E.coli and SYTO 24/Propidium iodide for S.epidermis and S.aureus. SYTO 9 and SYTO 24 are cell membrane permeant nucleic acid stains with green (˜498 nm for SYTO 9 and ˜515 nm for SYTO 24) fluorescence and used to stain both live and dead cells; Propidium iodide is a red-fluorescent nucleic acid stain that is membrane impermeable to viable cells but stains DNA or RNA of dead cells with comprised membranes and emits red (˜617 nm) fluorescence, indicating cell death. […]

In series [8] the test system is S.aureus. As to the kind of experiment: Dead/live assay, biocidal activity against S.aureus. The class given is cell-based. As to conditions: for light activated death of S. aureus: light and dark conditions, 0.1 to 5 μg/mL, various time points (FIGS. 22-25). As to the method:
as §2, §3
Experiments similar to those described in Example 1 above were performed using TM and OPE1-DABCO against S. Aureus. FIG. 22 is a graph showing TM vs. 7×10^7/mL S. aureus under light and dark conditions at concentrations of 0.1 and 1 μg/mL and at various time points (5, 10, 15, 30, 45, and 60 minutes). FIG. 23 is a graph showing EO-OPE1-DABCO vs 6×10^7/mL S. aureus under light and dark conditions at different concentrations of 0.1, 1, and 5 μg/mL and at various time points. FIG. 24 is a graph showing EO-OPE1-DABCO vs S. Aureus under light and dark conditions at a concentration of 1 μg/mL and at various time points. FIG. 25 is a graph showing EO-OPE1-DABCO vs S. Aureus under light and dark conditions at different concentrations of 0.1 and 1 μg/mL and at various time points.

The test system of series [9] is S.epidermis. As to the kind of experiment: Dead/live assay, biocidal activity against S.epidermis. Format: cell-based, Staphylococcus epidermis. As to conditions: under 365 nm radiation. As to the method:
as §4, §5

For the molecule `C[N+](C)(C)CCOc1ccc(C#Cc2ccc(C#Cc3ccc(OCC[N+](C)(C)C)cc3)cc2)cc1.[I-].[I-]` [EO-OPE-1 (C2, A)], the “absorbance intensity after 30 min relative to that measured at 1 min” value in series [1] was “the same”. For the same molecule, the “Fluorescence quantum yields(Φf)*” value in series [1] (in water) stood at 0.59 ± 0.05. In addition, the “light-induced biocidal activity” value in series [2] is recorded as “dramatic light-induced biocidal activity”. In series [3], the “solubility in CH3OH” value is given as “moderately soluble”; the “solubility in DMF and DMSO” value is “quite soluble”; the “solubility in water” value is reported as “poorly soluble”. Also, in [4], the “transient absorption (TA) intensity, comparison in words” value (“transient absorption (TA) intensity” below) is reported as “comparable”. Moreover, in [4] (in H2O), the “τ3/intensity in H2O” value was found to be 0.065; the “τ3/λmax(nm) in H2O” value was found to be 541 nm; the “τ3/μs in H2O (triplet lifetime)” value was 17.9 μs and 18.7 μs.

Take `C[N+](C)(C)CCCOc1ccc(C#Cc2ccc(C#Cc3ccc(OCCC[N+](C)(C)C)cc3)cc2)cc1.[I-].[I-]` [EO-OPE-1 (C3, A)]: in series [5], the “inactivation of MS2 phage in the presence of UV irradiation” value was “enhanced inactivation”. For the same molecule, the “absorbance intensity after 30 min relative to that measured at 1 min” value in series [1] is recorded as “around 2 times”. In addition, the “Fluorescence quantum yields(Φf)*” value in series [1] (in water) is recorded as 0.52 ± 0.05. The “Fluorescence quantum yields(Φf)*” value in series [1] (in water; A)) is reported as 0.59. The “antiviral activity” value in series [6] is listed as “significant antiviral activity”. Further, the “light-induced biocidal activity” value in series [2] is “dramatic light-induced biocidal activity”. Besides, in series [3], the “solubility in CH3OH” value was “moderately soluble”; the “solubility in DMF and DMSO” value is reported as “quite soluble”; the “solubility in water” value is “poorly soluble”. Also, in series [4], the “transient absorption (TA) intensity” value is “comparable”. Moreover, in series [4] (in H2O), the “τ3/intensity in H2O” value is 0.07, the “τ3/λmax(nm) in H2O” value is 545 nm and the “τ3/μs in H2O (triplet lifetime)” value is 17.9 μs. For the same molecule, in series [4] (in H2O; A)), the “τ3/μs in H2O (triplet lifetime)” value is on record as 5.2 μs.

Regarding `O=S(=O)([O-])CCCOc1ccc(C#Cc2ccc(C#Cc3ccc(OCCCS(=O)(=O)[O-])cc3)cc2)cc1.[Na+].[Na+]` [EO-OPE-1 (C3, S)], in series [7], the “killing of E. coli” value is given as “kill”. Also, the “absorbance intensity after 30 min relative to that measured at 1 min” value in series [1] was determined as 1.5 times. Also, the “Fluorescence quantum yields(Φf)*” value in [1] (in water) is 0.46 and 0.50 ± 0.07. Further, in series [8] (under 365 nm radiation), the “killing of S. aureus” value is on record as “kill”. For the same molecule, in series [9], the “killing of S. epidermis” value is recorded as “kill”. Besides, the “light-induced biocidal activity” value in series [2] is listed as “dramatic light-induced biocidal activity; also recorded: relatively poor light-induced biocidal activity”. In series [3], the “solubility in CH3OH” value is recorded as “moderately soluble”; the “solubility in DMF and DMSO” value was “quite soluble”; the “solubility in water” value is “poorly soluble”. The “transient absorption (TA) intensity” value in series [4] is “comparable”. Moreover, in series [4] (in H2O), the “τ3/intensity in H2O” value was determined as 0.06 and the “τ3/λmax(nm) in H2O” value worked out at 543 nm.

For `CCCCCC[N+]12CC[N+](CCCOc3ccc(C#Cc4ccc(C#Cc5ccc(OCCC[N+]67CC[N+](CCCCCC)(CC6)CC7)cc5)cc4)cc3)(CC1)CC2.[Br-].[Br-].[Br-].[Br-]` [EO-OPE-1-DABCO], the “light activated death of S. aureus” value in [8] is “light activated death is clearly demonstrated”.

In the case of `COc1cc(C#Cc2ccc(C#Cc3ccc(OCCC[N+](C)(C)C)cc3)cc2)cc(OC)c1OC.[I-]` [TM], in series [8], the “light activated death of S. aureus” value is “light activated death is clearly demonstrated”.

The values are drawn from patent publication US10092000B2, “Structure, synthesis, and applications for oligo phenylene ethynylenes (OPEs)” (STC.UNM, priority 2010, dated 2018).
